We go through 1 compound from ChEMBL document CHEMBL3997763 (Medchemcomm, 2016).

Each structure is given as a SMILES string. The source made the active and inactive calls. The rule behind the calls is not given here.

The nature of series [1]: Apparent oral volume of distribution in Sprague-Dawley rat at 100 mg/kg administered as single dose by LC-MS/MS analysis. It is filed as ADME, organism-based. The note with it: in vivo.
In series [2] the test system is Rattus norvegicus. Description: Antihyperlipidemic activity in po dosed triton WR-1339 induced Charles Foster rat hyperlipidemia model assessed as inhibition of phospholipid level in serum administered simultaneously with triton WR-1339 after 18 hrs by enzymatic method relative to control. Type of series: functional, organism-based.
For series [3], the species on record is Rattus norvegicus. Description: animal or person. The note with it: Charles Foster, po, 18 h. It is filed as functional.
Description: Antihyperlipidemic activity in triton WR-1339 induced Charles Foster rat hyperlipidemia model assessed as inhibition of triglyceride level in serum at 100 mg/kg, po administered simultaneously with triton WR-1339 after 18 hrs by enzymatic method relative to control
Series [4] relates to Rattus norvegicus. Description: Hypolipidemic activity in HFD-induced Charles Foster rat chronic hyperlipidemia model assessed as reduction in serum ALT level at 100 mg/kg administered via oral gavage for 30 days simultaneously with high fat diet by colorimetric method relative to HFD treated vehicle. It is filed as functional. The note with it: 720 h.
Series [5] relates to Rattus norvegicus. Put plainly: Hypolipidemic activity in HFD-induced Charles Foster rat chronic hyperlipidemia model assessed as reduction in serum AST level at 100 mg/kg administered via oral gavage for 30 days simultaneously with high fat diet by colorimetric method relative to HFD treated vehicle. It is filed as functional. The note with it: 720 h.
Series [6] has as its system Rattus norvegicus. Description: Antihyperlipidemic activity in triton WR-1339 induced Charles Foster rat hyperlipidemia model assessed as inhibition of total cholesterol level in serum at 150 mg/kg, po administered simultaneously with triton WR-1339 after 18 hrs by enzymatic method relative to control. It is filed as functional.
For series [7], the species on record is Rattus norvegicus. Put plainly: animal or person. Type of series: functional. The note with it: Charles Foster, po, 18 h. This is another data set of the same source.
Description: Antihyperlipidemic activity in triton WR-1339 induced Charles Foster rat hyperlipidemia model assessed as inhibition of phospholipid level in serum at 100 mg/kg, po administered simultaneously with triton WR-1339 after 18 hrs by enzymatic method relative to control
Series [8] concerns Rattus norvegicus. Description: Hypolipidemic activity in HFD-induced Charles Foster rat assessed as reduction in serum LDL-TC at 100 mg/kg administered as single dose via oral gavage for 30 days simultaneously with high fat diet. It is filed as functional, organism-based.
The subject of series [9] is Rattus norvegicus. Put plainly: Hypolipidemic activity in HFD-induced Charles Foster rat chronic hyperlipidemia model assessed as increase in fecal excretion of deoxycholic acid at 100 mg/kg administered via oral gavage for 30 days simultaneously with high fat diet by enzymatic method relative to HFD treated vehicle. It is filed as functional.
Series [10] has as its system Rattus norvegicus. Put plainly: Increase in phospholipid level in serum of triton WR-1339 induced Charles Foster rat hyperlipidemia model at 50 mg/kg, po administered simultaneously with triton WR-1339 after 18 hrs by enzymatic method relative to control. It is filed as functional.
Series [11] deals with T1, Albumin (Bos taurus, UniProt P02769). Description: Binding affinity to bovine serum albumin by fluorescence quenching method. It is filed as ADME. The settings on record: cattle, isolated protein.
T1 sequence (P02769 whole entry): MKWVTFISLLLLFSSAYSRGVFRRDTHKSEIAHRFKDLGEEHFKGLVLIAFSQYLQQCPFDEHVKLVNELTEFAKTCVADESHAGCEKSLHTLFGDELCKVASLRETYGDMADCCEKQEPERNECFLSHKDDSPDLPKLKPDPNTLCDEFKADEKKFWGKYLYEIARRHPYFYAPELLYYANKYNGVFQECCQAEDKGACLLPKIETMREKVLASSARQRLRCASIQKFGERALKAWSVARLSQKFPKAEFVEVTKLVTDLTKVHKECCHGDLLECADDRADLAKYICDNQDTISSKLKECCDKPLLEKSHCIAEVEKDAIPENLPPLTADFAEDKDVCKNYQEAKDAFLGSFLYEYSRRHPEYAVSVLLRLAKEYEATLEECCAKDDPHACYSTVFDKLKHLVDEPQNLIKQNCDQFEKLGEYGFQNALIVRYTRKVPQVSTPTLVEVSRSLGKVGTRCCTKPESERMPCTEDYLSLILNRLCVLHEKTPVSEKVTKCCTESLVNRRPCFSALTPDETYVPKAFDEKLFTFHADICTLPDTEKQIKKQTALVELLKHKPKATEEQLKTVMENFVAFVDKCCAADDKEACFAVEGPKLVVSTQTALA
Series [12] concerns the target T1, Albumin. Put plainly: Binding affinity to bovine serum albumin by absorption spectroscopic method. Type of series: ADME. The note with it: cattle, isolated protein.
In series [13] the test system is Rattus norvegicus. Description: Antihyperlipidemic activity in HFD-induced Charles Foster rat chronic hyperlipidemia model assessed as body weight at 100 mg/kg administered via oral gavage for 30 days simultaneously with high fat diet (reference value: 263.52 +/- 21.56 g). It is filed as functional.
Series [14] relates to Rattus norvegicus. Description: Antihyperlipidemic activity in triton WR-1339 induced Charles Foster rat hyperlipidemia model assessed as inhibition of triglyceride level in serum at 50 mg/kg, po administered simultaneously with triton WR-1339 after 18 hrs by enzymatic method relative to control. It is filed as functional.
Series [15] relates to Rattus norvegicus. Description: Antihyperlipidemic activity in triton WR-1339 induced Charles Foster rat hyperlipidemia model assessed as inhibition of phospholipid level in serum at 150 mg/kg, po administered simultaneously with triton WR-1339 after 18 hrs by enzymatic method relative to control. It is filed as functional.
In series [16] the test system is Rattus norvegicus. Put plainly: Hypolipidemic activity in HFD-induced Charles Foster rat assessed as reduction in serum LDL-TG at 100 mg/kg administered as single dose via oral gavage for 30 days simultaneously with high fat diet. Type of series: functional, organism-based.
Series [17] relates to Rattus norvegicus. Description: Hypolipidemic activity in HFD-induced Charles Foster rat chronic hyperlipidemia model assessed as reduction in serum total cholesterol level at 100 mg/kg administered via oral gavage for 30 days simultaneously with high fat diet by enzymatic method relative to HFD treated vehicle. Type of series: functional. The settings on record: 720 h.
Series [18] relates to Rattus norvegicus. Description: Antihyperlipidemic activity in po dosed triton WR-1339 induced Charles Foster rat hyperlipidemia model assessed as inhibition of triglyceride level in serum administered simultaneously with triton WR-1339 after 18 hrs by enzymatic method relative to control. It is filed as functional, organism-based.
The species named for series [19] is Rattus norvegicus. Description: animal or person. It is filed as functional. The settings on record: Charles Foster, po, 18 h. The source holds these as a separate data set.
Description: Antihyperlipidemic activity in triton WR-1339 induced Charles Foster rat hyperlipidemia model assessed as inhibition of total cholesterol level in serum at 100 mg/kg, po administered simultaneously with triton WR-1339 after 18 hrs by enzymatic method relative to control
Series [20] relates to Rattus norvegicus. Description: Antihyperlipidemic activity in triton WR-1339 induced Charles Foster rat hyperlipidemia model assessed as increase in HDL-C level in serum at 100 mg/kg, po administered simultaneously with triton WR-1339 after 18 hrs by enzymatic method relative to control. It is filed as functional.
Series [21] deals with Rattus norvegicus. Description: Antihyperlipidemic activity in triton WR-1339 induced Charles Foster rat hyperlipidemia model assessed as inhibition of total cholesterol level in serum at 50 mg/kg, po administered simultaneously with triton WR-1339 after 18 hrs by enzymatic method relative to control. It is filed as functional.
The subject of series [22] is Liver. Put plainly: Stability in Sprague-Dawley rat liver microsomes at 10 uM in absence of NADPH after 5 to 90 mins by LC-MS/MS analysis. Type of series: ADME, microsome. A general note: Liver microsomes are vesicles of endoplasmic reticulum, rich in cytochrome P450 enzymes.
Series [23] concerns the target T2, 3-hydroxy-3-methylglutaryl-coenzyme A reductase (Homo sapiens) (UniProt P04035).
T2 sequence (whole entry): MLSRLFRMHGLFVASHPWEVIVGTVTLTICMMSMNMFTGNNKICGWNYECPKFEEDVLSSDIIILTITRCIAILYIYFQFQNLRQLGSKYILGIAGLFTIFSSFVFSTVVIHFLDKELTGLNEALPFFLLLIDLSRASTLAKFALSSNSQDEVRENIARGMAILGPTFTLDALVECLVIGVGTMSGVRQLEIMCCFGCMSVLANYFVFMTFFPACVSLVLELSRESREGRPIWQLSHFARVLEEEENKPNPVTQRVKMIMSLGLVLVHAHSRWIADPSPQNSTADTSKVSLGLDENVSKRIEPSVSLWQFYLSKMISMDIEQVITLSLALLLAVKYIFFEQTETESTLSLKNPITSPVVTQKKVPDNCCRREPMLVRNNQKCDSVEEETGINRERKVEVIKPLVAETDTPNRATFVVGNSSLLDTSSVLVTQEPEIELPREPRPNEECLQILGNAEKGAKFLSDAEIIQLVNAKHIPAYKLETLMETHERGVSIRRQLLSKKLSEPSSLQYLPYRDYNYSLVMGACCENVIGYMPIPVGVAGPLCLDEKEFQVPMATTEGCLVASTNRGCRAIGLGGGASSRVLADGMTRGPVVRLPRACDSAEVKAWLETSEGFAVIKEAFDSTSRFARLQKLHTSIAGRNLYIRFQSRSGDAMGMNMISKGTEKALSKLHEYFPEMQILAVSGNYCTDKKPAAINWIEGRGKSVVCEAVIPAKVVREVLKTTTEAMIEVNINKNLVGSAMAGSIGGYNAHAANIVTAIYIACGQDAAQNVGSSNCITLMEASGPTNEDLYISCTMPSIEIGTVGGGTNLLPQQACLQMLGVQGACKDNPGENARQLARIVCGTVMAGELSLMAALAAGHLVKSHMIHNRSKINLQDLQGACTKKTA
Description: Inhibition of human HMG-CoA reductase catalytic domain at 1 uM using HMG-CoA as substrate in presence of NADPH by colorimetric method relative to control.

Series [24] deals with Rattus norvegicus. Put plainly: Antihyperlipidemic activity in po dosed triton WR-1339 induced Charles Foster rat hyperlipidemia model assessed as inhibition of total cholesterol level in serum administered simultaneously with triton WR-1339 after 18 hrs by enzymatic method relative to control. Type of series: functional, organism-based.

One may read the Vd/F as the volume of distribution divided by bioavailability. In general, inhibition refers to how much of the control response was suppressed. The term inhibition in vivo denotes the share of the control response that was lost under treatment. With `COc1ccc(-c2cc3cc(C(c4c[nH]c5ccccc45)c4c[nH]c5ccccc45)cc(C(C)(C)C)c3oc2=O)cc1OC`, in series [1], the Vd/F was 684 L/kg. In addition, the inhibition entry in series [2] is “Dose-dependent effect”; in [18], “Dose-dependent effect”; in series [23], 19%; in series [24], “Dose-dependent effect”. For the same compound, the inhibition in vivo at 100 mg/kg in series [3] stood at 33%; in [4], 26%; in series [5] it was 28%; in series [7] it was 33%; in [17], 24%; in [19], 32%. The inhibition in vivo at 150 mg/kg worked out at 33% in [6] and 35% in series [15]. Besides, the outcome in series [8] and in series [16] was Active. Further, the Activity is on record as 39% in [9]; 22% in [10]; “Active” in series [11]; “Active” in series [12]; 228.19 g in series [13]; 23% in [20]. The inhibition in vivo at 50 mg/kg in series [14] and in series [21] was 20% each time. Further, in series [22], the Stability entry is listed as “Stable”.
